In brackets after ≈: the same amount, converted by molar mass. Several values for one entry are separate records, joined by “and”; a condition that tells them apart may be missing. Identical values can stand only once.
What was measured:
Tc-CYP51 = Tc-CYP51 (Trypanosoma cruzi, UniProt Q7Z1V1); test: T. cruzi sterol 14α-demethylase (CYP51) enzyme assay; format: biochemical; conditions: for Tc CYP51 Hill / Emax / IC50: individual replicate; for Emax: read-out: Tc CYP51 Max Effect; for IC50: read-out: Tc CYP51 pIC50 (converted); for fold more potent against the parasites than against Tc-CYP51: urea series
Chain of Tc-CYP51 (Q7Z1V1 whole entry): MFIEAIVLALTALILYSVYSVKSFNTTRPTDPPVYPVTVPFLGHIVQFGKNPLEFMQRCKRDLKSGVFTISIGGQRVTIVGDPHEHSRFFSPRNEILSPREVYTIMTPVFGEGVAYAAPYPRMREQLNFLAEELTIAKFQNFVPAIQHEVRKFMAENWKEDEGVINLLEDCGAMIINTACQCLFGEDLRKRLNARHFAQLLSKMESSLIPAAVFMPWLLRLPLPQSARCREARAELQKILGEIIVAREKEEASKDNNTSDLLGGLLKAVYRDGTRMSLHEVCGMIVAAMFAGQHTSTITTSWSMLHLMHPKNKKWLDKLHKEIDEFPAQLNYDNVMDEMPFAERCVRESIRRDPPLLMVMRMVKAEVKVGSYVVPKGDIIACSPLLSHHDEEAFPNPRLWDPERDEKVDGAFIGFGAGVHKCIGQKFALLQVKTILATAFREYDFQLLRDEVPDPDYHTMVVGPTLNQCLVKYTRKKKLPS
Method: T. cruzi sterol 14α-demethylase (CYP51) enzyme assay
Potency against T. cruzi CYP51 was determined using a previously described fluorescence assay. Average potency for compound 1 was determined with three experimental replicates. Potencies in Fig.3 are from single experimental replicates. ^5

host Vero cell = test: Vero host cell toxicity in the intracellular T. cruzi assay; format: cell-based; set-up: key to Max Effect (Vero): % inhibition; 0% = DMSO control, 100% = 16 μM nifurtimox control; conditions: for IC50: host Vero cell, read-out: Vero pIC50 (converted)
Method: (§1) T. cruzi intracellular potency and rate-of-kill assay (high content imaging) ^1
(§2) Silvio X10/7 T. cruzi trypomastigotes were incubated at 37°C 5% CO2 with 1.6×10^7 Vero cells overnight at MOI10 in MEM media supplemented with 10% foetal calf serum (FCS). Extracellular parasites were removed by aspirating cell culture supernatant, and washing Vero monolayer with 10 ml serum-free MEM three times. Vero cells were then harvested by trypsinization and dispensed at 2×10^3 per well (50 μl in MEM/ 1% FCS) into 384 well plates pre-stamped with compounds in DMSO using automated washer/ dispenser EL406 and liquid handling software (Biotek). Plates were then incubated at 37°C in 5% CO2 for 96 h. For rate-of-kill determination, plates were incubated for 24h, 48h, 72h and 96h.
(§3) Plates were subsequently fixed with 4% formaldehyde for 20 min, permeabilised and stained with 5 μgml^-1 Hoechst 33342/ 0.1% Triton/ PBS Thimerosal 20 min. Automated imaging was performed by an Operetta high content imaging system using 20x objective (PerkinElmer). Images were analysed with an algorithm generated in Columbus (PerkinElmer) to segment Vero cell nuclei, Vero cell cytoplasm and parasite nuclei/ kinetoplasts, reporting number of amastigotes per Vero cell, percent infected Vero cells and total number of Vero cells. Compound potencies against T. cruzi parasites were calculated in IDBS Activitybase using percent infected Vero cells and Vero toxicity curves generated using number of host cells. All data was normalised to percent inhibition based on the raw data values for the 100% effect control (16 μM nifurtimox) and the 0% effect control (DMSO) on each plate at each time point. Curve fitting was carried out using a four-parameter equation as previously described. ^2 For rate-of-kill experiments the percent infected cells at each compound concentration was plotted against time.

[1] = ChromLogD pH7.4 (chromatographic hydrophobicity index), PFI, LLE; conditions: for PFI: ChromLogDpH7.4 + no. aromatic rings; for chromatographic logD: pH 7.4
Text: [23] Alongside PFI, LLE (ligand lipophilic efficiency, T. cruzi pIC50 - ChromLogDpH7.4) was also monitored to identify changes where the impact on potency was not driven by increasing lipophilicity.

[2] = tested on: intracellular T. cruzi amastigotes; test: T. cruzi intracellular potency assay (high content imaging); format: cell-based, Trypanosoma cruzi; set-up: key to Max Effect (T. cruzi): % inhibition; 0% = DMSO control, 100% = 16 μM nifurtimox control; conditions: for Emax / EC50 / IC50: Trypanosoma cruzi; for Emax / EC50 / Hill slope (T. cruzi) / Max Effect (T. cruzi) / pEC50 (T. cruzi): individual replicate; for Emax: read-out: Max Effect (T. cruzi); for EC50: read-out: pEC50 (T. cruzi) (converted); for IC50: intracellular amastigotes in Vero cells, 96 h, mean of N ≥ 3, read-out: T. cruzi pIC50 (converted)
Method: as §1, §2, §3

[3] = Human liver microsomal intrinsic clearance; format: in vitro ADME; conditions: human liver microsomes
[4] = Kinetic aqueous solubility by CAD; format: physicochemical; conditions: kinetic from dmso stock; kinetic, CAD; read-out: Aqueous solubility
[5] = Mouse liver microsomal intrinsic clearance; format: in vitro ADME; conditions: mouse liver microsomes
[6] = Chlorocebus sabaeus, Vero, individual replicate

| SMILES | Tc CYP51 Hill (Tc-CYP51) | Emax (Tc-CYP51) | IC50 (Tc-CYP51) | EC50 (host Vero cell; [6]) | IC50 (host Vero cell; Chlorocebus sabaeus) | Max Effect (Vero) (host Vero cell; individual replicate) | PFI [1] | chromatographic logD [1] | Emax [2] | EC50 [2] | IC50 [2] | Hill slope (T. cruzi) [2] | Max Effect (T. cruzi) [2] | pEC50 (T. cruzi) [2] | HLM CLi [3] | solubility [4] | MLM CLi [5] | fold more potent against the parasites than against Tc-CYP51 (Tc-CYP51) | further results |
| --- | --- | --- | --- | --- | --- | --- | --- | --- | --- | --- | --- | --- | --- | --- | --- | --- | --- | --- | --- |
| COc1ccc(CN2C(=O)C(N)C(=O)N(c3ccccc3)c3ccccc32)cc1 (stereo not shown) [Compound 15, 3-amino-1-(4-methoxybenzyl)-5-phenyl-1,5-dihydro-2H-benzo[b][1,4]diazepine-2,4(3H)-dione] | 1.2 | 94% | 200 nM | > 50.1 µM | > 50.1 µM | 9 and 4.52 and 11 and 20 | 7.1 | 4.1 | 87% | 1580 nM | 1580 nM | 1.8 and 4.1 and 3.2 and 10.2 | 92 and 88 | 5.7 and 5.9 | 1.3 mL/min/g | > 232 µM | 16 mL/min/g | – | – |
| COc1ccc(NC(=O)NC2C(=O)Nc3cccc(F)c3N(c3ccccc3)C2=O)cc1 (stereo not shown) [Compound 9, 1-(9-fluoro-2,4-dioxo-1-phenyl-2,3,4,5-tetrahydro-1H-benzo[b][1,4]diazepin-3-yl)-3-(4-methoxyphenyl)urea] | 1.3 | 90% | 10000 nM | > 50.1 µM | > 50.1 µM | 6 and 11 and -2.3 and 8 | 7.2 | 4.2 | 91% | 501 nM | 398 nM | 5.2 and 12.9 and 2.3 and 2.7 | 89 and 94 | 6.5 and 6.4 | <0.4 mL/min/g | < 1 µM | <0.5 mL/min/g | 10 fold | – |
| COc1ccc(N2C(=O)C(NC(=O)Nc3ccc(C)cc3)C(=O)Nc3ccccc32)cc1 (stereo not shown) [Compound 4, 1-(1-(4-methoxyphenyl)-2,4-dioxo-2,3,4,5-tetrahydro-1H-benzo[b][1,4]diazepin-3-yl)-3-(p-tolyl)urea] | 0.9 | 89% | 1580 nM | > 50.1 µM | > 50.1 µM | 15 and 26 and 13 and 12 and 17 and 16 and 20 and 4 | 7.8 | 4.8 | – | – | 1000 nM | 5.1 and 2.8 and 7.4 and 2.7 and 3.6 and 0.6 and 4.0 and 2.2 | 106 and 89 and 74 and 85 and 86 and 109 and 107 | 5.7 and 6.1 and 5.8 and 6.5 and 5.9 and 6.0 | <0.4 mL/min/g | 56 µM (≈ 24.1 µg/mL) | 1.2 mL/min/g | 10 fold | – |
| COc1cccc(N2C(=O)C(NC(=O)Nc3ccc(C)cc3)C(=O)Nc3ccccc32)c1 (stereo not shown) [Compound 5, 1-(1-(3-methoxyphenyl)-2,4-dioxo-2,3,4,5-tetrahydro-1H-benzo[b][1,4]diazepin-3-yl)-3-(p-tolyl)urea] | 0.7 | 68% | 3980 nM | > 50.1 µM | > 50.1 µM | 47 and 14 and 18 and 12 | 7.8 | 4.8 | 87% | 2510 nM | 2510 nM | 2.8 and 3.2 | 88 and 91 | 5.7 and 5.5 | <0.4 mL/min/g | 37 µM (≈ 15.9 µg/mL) | 1.6 mL/min/g | 10 fold | – |
| COc1ccc(CN2C(=O)C(N)C(=O)N(C3CC3)c3ccccc32)cc1 (stereo not shown) [Compound 19, 3-amino-1-cyclopropyl-5-(4-methoxybenzyl)-1,5-dihydro-2H-benzo[b][1,4]diazepine-2,4(3H)-dione] | 1.0 | 94% | 316 nM | > 50.1 µM | > 50.1 µM | 15 and 17 and 14 | 5.2 | 3.2 | 88% | 5010 nM | 3980 nM | 14.2 and 4.9 and 13.0 and 5.9 | 87 | 5.5 and 5.4 | <0.4 mL/min/g | > 442 µM | 11.8 mL/min/g | – | Emax (host Vero cell; Chlorocebus sabaeus, Vero, individual replicate, read-out: Max Effect (Vero)): 18% |
| COc1ccc(CN2C(=O)C(N)C(=O)N(CC3CC(F)(F)C3)c3ccccc32)cc1 (stereo not shown) [Compound 20, 3-amino-1-((3,3-difluorocyclobutyl)methyl)-5-(4-methoxybenzyl)-1,5-dihydro-2H-benzo[b][1,4]diazepine-2,4(3H)-dione] | 1.3 | 99% | 100 nM | > 50.1 µM | > 50.1 µM | 30 and 22 and 25 and 9 | 6.2 | 4.2 | 84% | 1260 nM | 1260 nM | 2.8 and 3.6 and 20.7 | 90 and 80 and 87 | 6.1 and 6.0 and 5.8 | 0.5 mL/min/g | > 402 µM | 12 mL/min/g | – | – |
| COc1ccc(CN2C(=O)C(N)C(=O)N(c3ccc(OC)nc3)c3ccccc32)cc1 (stereo not shown) [Compound 18, 3-amino-1-(4-methoxybenzyl)-5-(6-methoxypyridin-3-yl)-1,5-dihydro-2H-benzo[b][1,4]diazepine-2,4(3H)-dione] | 1.3 | 100% | 200 nM | > 50.1 µM | > 50.1 µM | 39 and 19 and 56 and 14 | 6.8 | 3.8 | 75% | 501 nM | 501 nM | 11.9 and 18.7 and 19.1 and 12.3 | 86 and 77 and 83 | – | <0.4 mL/min/g | > 332 µM | 5.8 mL/min/g | – | Hill Slope (Vero) (host Vero cell; individual replicate): 3.7; pEC50 (Vero) (host Vero cell; individual replicate): 4.4 |
| COc1ccc(CN2C(=O)C(N)C(=O)N(c3ccc(F)cc3)c3ccccc32)cc1 (stereo not shown) [Compound 17, 3-amino-1-(4-fluorophenyl)-5-(4-methoxybenzyl)-1,5-dihydro-2H-benzo[b][1,4]diazepine-2,4(3H)-dione] | 1.8 | 95% | 200 nM | > 50.1 µM | > 50.1 µM | 26 and 8 and 14 and 23 | 7.4 | 4.4 | 88% | 501 nM | 631 nM | 24.4 and 25.4 and 12.5 and 3.5 | 87 and 83 | 6.2 and 6.0 | <0.4 mL/min/g | > 410 µM | 10.6 mL/min/g | – | – |

— article PMC12208134, “Structure-activity relationships of 1,5-dihydro-2H-benzo[b][1,4]diazepine-2,4(3H)-diones as inhibitors of Trypanosoma cruzi” (RSC medicinal chemistry, 2025)
